Results taken from patent US20050222200A1, “AMIDE DERIVATIVES AS ION CHANNEL LIGANDS AND PHARMACEUTICAL COMPOSITIONS AND METHODS OF USING THE SAME” (Renovis, Inc., priority 2003, published 2005).

Experiments:
VR1 [1] = target: T1, VR1 (Rattus norvegicus, UniProt O35433); experiment: Whole-cell patch clamp electrophysiology: inhibition of capsaicin induced current in DRG neurons; format: cell-based, rats; parameters: Dorsal root ganglion (DRG) neurons were recovered from either neonatal or adult rats; endogenous in cells; host or cells: primary rat dorsal root ganglion neurons
T1 sequence (O35433 whole entry): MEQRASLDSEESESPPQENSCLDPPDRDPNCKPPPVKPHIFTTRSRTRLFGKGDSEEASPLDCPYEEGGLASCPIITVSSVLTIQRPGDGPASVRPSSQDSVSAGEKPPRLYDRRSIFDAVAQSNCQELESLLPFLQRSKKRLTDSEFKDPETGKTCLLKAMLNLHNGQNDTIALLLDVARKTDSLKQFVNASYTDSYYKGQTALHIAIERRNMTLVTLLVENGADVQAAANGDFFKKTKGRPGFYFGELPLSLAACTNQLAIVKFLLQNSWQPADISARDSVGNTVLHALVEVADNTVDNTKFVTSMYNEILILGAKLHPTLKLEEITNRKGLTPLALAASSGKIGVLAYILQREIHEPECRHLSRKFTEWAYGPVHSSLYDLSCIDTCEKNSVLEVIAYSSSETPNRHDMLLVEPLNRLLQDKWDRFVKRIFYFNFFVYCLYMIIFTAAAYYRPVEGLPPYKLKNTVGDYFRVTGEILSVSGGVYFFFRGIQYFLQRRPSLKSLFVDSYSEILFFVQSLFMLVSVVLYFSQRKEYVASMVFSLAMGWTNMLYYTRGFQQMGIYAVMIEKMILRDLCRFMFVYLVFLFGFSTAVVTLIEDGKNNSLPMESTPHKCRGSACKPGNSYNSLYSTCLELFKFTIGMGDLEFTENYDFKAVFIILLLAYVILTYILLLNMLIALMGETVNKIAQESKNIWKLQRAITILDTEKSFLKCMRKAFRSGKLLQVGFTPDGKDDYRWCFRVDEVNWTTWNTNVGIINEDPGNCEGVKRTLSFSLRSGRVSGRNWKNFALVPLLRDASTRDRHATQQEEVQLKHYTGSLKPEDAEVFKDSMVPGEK
Source text: Whole-cell patch clamp electrophysiology
Dorsal root ganglion (DRG) neurons were recovered from either neonatal or adult rats and plated onto poly-D-lysine coated glass coverslips. The plated neurons were transferred into a chamber to allow drug solutions to be added to the cells using a computer-controlled solenoid-valve based perfusion system. The cells were imaged using standard DIC optics. Cells were patched using finely-pulled glass electrodes. Voltage-clamp electrophysiology experiments were carried out using an Axon Instruments Multiclamp amplified controlled by pCLAMP8 software.
The cells were placed into a whole-cell voltage clamp and held at a voltage of –80mV while monitoring the membrane current in gap-free recording mode.
500nM capsaicin was added for 30 seconds as a control. Test compounds at various concentrations were added to the cells for 1 minute prior to a 30 second capsaicin application. Differences between control experiments and drug positive capsaicin experiments were used to determine the efficacy of each test compound. All compounds that inhibited capsaicin induced current greater than 50% were considered positives.

VR1 [2] = target: T1, VR1; experiment: Calcium imaging assay: inhibition of capsaicin induced calcium influx in DRG neurons (Fura2, microscope); format: cell-based; parameters: endogenous in cells; host or cells: DRG neurons; conditions: for inhibition of calcium ion influx induced by capsaicin stimulation: class symbols per legend
Summary of the method: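 Fura2-loaded rat DRG neurons imaged by microscope; test compound perfused 1 min, then capsaicin (250 nM) applied with compound for 20–60 s. Calcium influx followed as 340/380 nm fluorescence ratio; inhibition above 75% scored positive.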

Row | Compound | inhibition of calcium ion influx induced by capsaicin stimulation (VR1 [2]) | further results
1 | COc1cc(NC(=O)c2ccc(/C=C/C(C)C)cc2)cc(C(F)(F)F)c1 [Compound 155] | – | inhibition at 0.1 µM (VR1 [1]; DRG neuron, concentration 100 nM, treatment time 20 seconds, 500nM capsaicin, held at -80mV, DRG neurons): 50%; calcium influx in neurons, capsaicin in presence of compound vs capsaicin alone (Figure 2) (VR1 [1]; same neurons, capsaicin alone as comparison): less calcium influx; inhibition at 0.3 µM (VR1 [2]; DRG neuron, concentration 300 nM, treatment time 20 sec, capsaicin 250 nM, DRG neurons): < 75%; fluorescence reflecting calcium ion influx when administered with capsaicin (Figure 1) (VR1 [2]; administered with capsaicin): reduced
2 | CC(C)(C)C#Cc1ccc(C(=O)Nc2ccc3c(c2)OCCO3)cn1 [Compound 423] | ++++ (compound exhibited 75% or greater inhibition of calcium ion influx induced by capsaicin stimulation) | –
3 | CC(C)(C)C#Cc1ccc(C(=O)Nc2cccc(C(F)(F)F)c2)cn1 [Compound 424] | +++ (compound exhibited 50-75% inhibition of calcium ion influx induced by capsaicin stimulation) | –
4 | CC(C)(C)C#Cc1ccc(C(=O)Nc2ccc(OC(F)(F)F)cc2)cn1 [Compound 425] | + (compound exhibited 0-25% inhibition of calcium ion influx induced by capsaicin stimulation) | –
5 | CC(C)(C)C#Cc1ccc(C(=O)Nc2ccc(S(C)(=O)=O)cc2)cn1 [Compound 427] | ++ (compound exhibited 25-50% inhibition of calcium ion influx induced by capsaicin stimulation) | –
6 | CC(C)(C)C#Cc1ccc(C(=O)Nc2cccc3cnccc23)cn1 [Compound 428] | ++++ (compound exhibited 75% or greater inhibition of calcium ion influx induced by capsaicin stimulation) | –
7 | CC(C)(C)C#Cc1ccc(C(=O)Nc2cnc3ccccc3c2)cn1 [Compound 429] | ++++ (compound exhibited 75% or greater inhibition of calcium ion influx induced by capsaicin stimulation) | –
8 | CCN(CC)c1ccc(NC(=O)c2ccc(C#CC(C)(C)C)nc2)cc1 [Compound 430] | + (compound exhibited 0-25% inhibition of calcium ion influx induced by capsaicin stimulation) | –
9 | Cc1ccc(NC(=O)c2ccc(C#CC(C)(C)C)nc2)nc1 [Compound 432] | + (compound exhibited 0-25% inhibition of calcium ion influx induced by capsaicin stimulation) | –
10 | CC(C)(C)C#Cc1ccc(C(=O)Nc2ccc(C(F)(F)F)cn2)cn1 [Compound 433] | ++ (compound exhibited 25-50% inhibition of calcium ion influx induced by capsaicin stimulation) | –
11 | CC(C)(C)C#Cc1ccc(C(=O)Nc2ccc(Cl)nc2)cn1 [Compound 434] | + (compound exhibited 0-25% inhibition of calcium ion influx induced by capsaicin stimulation) | –
12 | COc1ccc(NC(=O)c2ccc(C#CC(C)(C)C)nc2)cn1 [Compound 435] | + (compound exhibited 0-25% inhibition of calcium ion influx induced by capsaicin stimulation) | –
13 | Cn1ccc2cc(NC(=O)c3ccc(C#CC(C)(C)C)nc3)ccc21 [Compound 437] | ++++ (compound exhibited 75% or greater inhibition of calcium ion influx induced by capsaicin stimulation) | –
14 | CC(C)(C)C#Cc1ccc(C(=O)Nc2ccc3c(c2)OCO3)cn1 [Compound 438] | ++++ (compound exhibited 75% or greater inhibition of calcium ion influx induced by capsaicin stimulation) | –
